From patent publication US11573241B2, “Total cellular iron as a marker of cancer stem cells and uses thereof” (Institut National de la Sante et de la Recherche Medicale …, priority 2016, dated 2023)
“Also recorded” adds a separate entry of the source.

Key:
[1] = format: physicochemical
Source text: FIG. 1. Salinomycin and AM5 sequester iron in lysosomes and trigger ferritin degradation. a, Chemical strategy to visualize small molecules in cells. b, Fluorescence microscopy images of U2OS cells showing the subcellular localization of labeled Sal derivatives AM4, AM5, and AM9. Lysotracker Deep Red stains the lysosomes and 4′,6-diamidino-2-phenylindole (DAPI) stains nuclear DNA. Scale bar, 10 μm. Zoom corresponds to ×6. c, Live cell fluorescence microscopy images showing the subcellular localization of iron(II) using the fluorogenic reduction of RhoNox-1 (green) in HMLER CD24^low cells treated with Sal or AM5 or AM9 (0.5 μM) for 48 h. Lysotracker deep red stains the lysosomes (red) and DAPI stains nuclear DNA (blue). Scale bar, 10 μm. d, Fixed cell fluorescence microscopy images showing the subcellular localization of iron(II) using the fluorogenic reduction of RhoNox-1 (green) in HMLER CD24^low cells treated with Sal or AM5 or AM9 (0.5 μM) for 48 h. e, Quantification of lysotracker-positive vesicles colocalizing with RhoNox-1 in fixed cells was carried out by means of visual inspection. At least 75 cells were counted per condition. Data represent three independent biological replicates (n=number of lysotracker vesicles). […] Spectra were recorded in CD3CN. […] For k and I, Samples prepared in CD3OD, spectra recorded at 298 K, 5 min following sample preparation (600 MHz). […]

[2] = test system: cells from treated PDX 1 and 2; assay: Limiting dilution assay, tumor-seeding capacity (ELDA); format: in vivo, NOD/SCID mice; details: re-implantation into secondary mice
Source text: Limiting dilution assay. Cells from 4-week treated mice were re-implanted into one to four secondary NOD/SCID mice with injection of 10, 50, 500 or 5000 cells for each treated tumor to functionally evaluate the proportion of residual CSCs in each treatment group (Unt., Doc, Sal, AM5) for the PDX 1 and 2. Each mouse that developed a tumor reaching a size of 10 mm was considered as a tumor-bearing mouse.
Estimation of number of CSCs in vivo. The number of mammary gland outgrowths obtained in a fat pad after cell re-implantation is currently used to evaluate the number of stem cells able to repopulate this fat pad. It is based on self-renewal and differentiation abilities, two hallmarks of stem cells. In the same manner, estimation of the number of CSCs can be obtained from tumor outgrowth data collected after limited dilution re-implantation of each group of treatments, based on tumor-initiating capacities of CSCs. For calculation, an online tool is available using Extreme Limiting Dilution Analysis (ELDA) (http://bioinf.wehi.edu.au/software/elda/) for limiting dilution analysis based on the Poisson single-hit model according to the number of outgrowths observed and the number of pat pad re-implanted for each cell dilution.

iCSCL-10A2 cells = assay: Annexin V/PI assay; format: cell-based; details: 0.5 μM, 72 h
Description: Annexin V/PI assay. Cells were treated as indicated. After treatment, cell death was quantified using Annexin V-FITC/Propidium Iodide (PI) assay according to the manufacturer's protocol (FITC Annexin V Apoptosis Detection Kit II, 556570, BD Pharmingen™) and analyzed by a LSRFortessa™ flow cytometer (BD Bioscience, San Jose, Calif.). The data were processed using Cell Quest software (BD Biosciences).

HMLER CD24^low cells = assay: Localization of intracellular iron(II) with RhoNox-1; format: cell-based, human; details: 0.5 μM, 48 h; for lysotracker-positive vesicles colocalized with the RhoNox-1 probe: fixed cells
Description: Localization of intracellular iron(II). RhoNox-1 was synthesized according to the original procedure described in […]. Cells were washed with 1× Hank's Balanced Salt Solution (HBSS, 14025-092, Life technologies) three times, then incubated with 5 μM of RhoNox-1/HBSS for 1 h at 37° C., 5% CO2 and washed with HBSS. Co-staining was performed by adding 100 nM LysoTracker Deep Red and Hoechst 33342 (H1399, Sigma, final concentration of 1 μg/mL) in HBSS. Experiments were performed with a 60×APO TIRF oil immersion objective of Nipkow Spinning Disk confocal system.

RhoNox-1 reduction assay = details: in the presence of iron (II)
Description: RhoNox-1 reduction assay. Experiments were carried in 96-well plate dishes. Reagent stock solutions were freshly prepared using Milli-Q water. 50 μL of solutions of Sal (800 μM), DFO (800 μM) and FeSO4 (80 μM) were mixed prior to addition of 50 μL of RhoNox-1 (40 μM) and completed with the appropriate volume of water to reach a final volume of 200 μL per well. Measurements were performed 30 min after addition of RhoNox-1 to the mix and were recorded using the PARADIGM™ Microplate Detection Platform (ex. 492 nm; em. 580 nm).

For C#CCN[C@@H]1C=C[C@]2(O[C@H]([C@@H](CC)C(=O)[C@@H](C)[C@@H](O)[C@H](C)C3O[C@@H](C(CC)C(=O)O)CC[C@@H]3C)[C@@H](C)C[C@H]2C)O[C@@]12CC[C@@](C)([C@H]1CC[C@](O)(CC)[C@H](C)O1)O2 (some centres unmarked) [AM5, Sal-Propargylamine], which “stability in the presence of iron(II) over time” value [1] is on record?
The value was “stable”.

And the “tumor-seeding capacity of tumor cells treated in vivo” value [2]?
Its value is “decreased tumor-seeding capacity; also recorded: more potent than both Sal and Doc”.

What about the “form of cell death” value (iCSCL-10A2 cells) of the same compound?
The value was “ferroptosis”.

And the “staining of iron(II) (subcellular localization)” value (HMLER CD24^low cells)?
The value was “restricted to the lysosomal compartment”.

What about the “lysotracker-positive vesicles colocalized with the RhoNox-1 probe” value (HMLER CD24^low cells) of the same compound?
Its value is “approximately 80%”.

Which “stability in the presence of iron(II) over time” value [1] does the source give for CC[C@@H](C(=O)[C@@H](C)[C@@H](O)[C@H](C)[C@@H]1O[C@@H]([C@@H](CC)C(=O)O)CC[C@@H]1C)[C@H]1O[C@]2(C=C[C@@H](O)[C@]3(CC[C@@](C)([C@H]4CC[C@](O)(CC)[C@H](C)O4)O3)O2)[C@H](C)C[C@@H]1C [Sal, salinomycin, reference compound] here?
The value was “formation of byproducts”.

What about the “tumor-seeding capacity of tumor cells treated in vivo” value [2] of the same compound?
Its value is “decreased tumor-seeding capacity”.

And the “form of cell death” value (iCSCL-10A2 cells)?
The value was “ferroptosis”.

And the “effect on iron reactivity (fluorogenic reduction of RhoNox-1)” value (RhoNox-1 reduction assay)?
Its value is “without altering its reactivity”.

And the “staining of iron(II) (subcellular localization)” value (HMLER CD24^low cells)?
The value was “restricted to the lysosomal compartment”.

What about the “lysotracker-positive vesicles colocalized with the RhoNox-1 probe” value (HMLER CD24^low cells) of the same compound?
The value was “approximately 80%”.
